Reference: US9656962B2, “Ring-contracted morphinans and the use thereof” (Purdue Pharma L.P., priority 2013, dated 2017)

How the values were obtained:
[1] = biological target: recombinant human kappa opioid receptor (κ) (Homo sapiens (Human), UniProt P41145); assay: κ-opioid receptor radioligand binding assay ([3H]-U69,593); conditions: binding affinity
Description: κ-Opioid Receptor Binding Assay Procedures: Membranes from HEK-293 cells, CHO cells or U-2 OS cells expressing the recombinant human kappa opioid receptor (κ) were prepared by lysing cells in ice cold hypotonic buffer (2.5 mM MgCl2, 50 mM HEPES, pH 7.4) (10 mL/10 cm dish) followed by homogenization with a tissue grinder/Teflon pestle. Membranes from a cell line naturally expressing kappa opioid receptor can also be used. Membranes were collected by centrifugation at 30,000×g for 15 min at 4° C. and pellets were resuspended in hypotonic buffer to a final concentration of 1-3 mg/mL. Protein concentrations were determined using the BioRad protein assay reagent with bovine serum albumen as standard. Aliquots of κ receptor membranes were stored at −80° C.
Radioligand dose displacement assays used 0.4 nM [^3H]-U69,593 (GE Healthcare, Piscataway, N.J.; 40 Ci/mmole) with 15 μg membrane protein (recombinant opioid receptor expressed in HEK 293 cells; in-house prep) in a final volume of 200 μl binding buffer (5% DMSO, 50 mM Trizma base, pH 7.4). Non-specific binding was determined in the presence of 10 μM unlabeled naloxone or U69,593. All reactions were performed in 96-well polypropylene plates for 1 hour at a temperature of about 25° C. Binding reactions were terminated by rapid filtration onto 96-well Unifilter GF/C filter plates (Perkin Elmer, Shelton, Conn.) presoaked in 0.5% polyethylenimine (Sigma). Harvesting was performed using a 96-well tissue harvester (Perkin Elmer, Shelton, Conn.) followed by five filtration washes with 200 μl ice-cold binding buffer. Filter plates were subsequently dried at 50° C. for 1-2 hours. Fifty μl/well scintillation cocktail (Perkin Elmer, Shelton, Conn.) was added and plates were counted in a Packard Top-Count for 1 min/well.

[2] = biological target: κ-opioid receptor (Homo sapiens (Human), UniProt P41145); assay: κ-opioid receptor [35S]GTPγS functional assay, U-2 OS cells (Table 5); format: biochemical
Method in brief: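 [35S]GTPγS binding in κ receptor membranes (0.026 μg/μl protein) with 10 μg/mL saponin, 3 μM GDP and 0.20 nM [35S]GTPγS in pH 7.4 HEPES/NaCl/MgCl2 buffer. Agonist incubation lasted 30 min at about 25 °C, followed by filtration and scintillation counting. Emax is expressed relative to U69,593.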

SMILES: NC(=O)[C@@H]1C[C@]23CCN(CC4CC4)[C@H](Cc4ccc(O)cc42)[C@]3(O)C1 [Compound 31, (2R,3aS,4R,9bS)-12-(cyclopropylmethyl)-3a,8-dihydroxy-1,2,3,3a,4,5-hexahydro-4,9b-(epiminoethano)cyclopenta-[a]naphthalene-2-carboxamide]
- Ki [1]: 0.84 ± 0.26 nM
- Emax ([2]; relative to U69,593): 87.5 ± 5.04%
- EC50 ([2]; κ GTP): 2.62 ± 0.024 nM
